# Reference: patent publication US7365096B2, “Methods for selectively inhibiting Janus tyrosine kinase 3 (Jak3)” (Board of Regents, The University of Texas System, priority 2002, dated 2008)
# Experiments:
# Tyk2 = Tyk2 (Homo sapiens, UniProt P29597); settings: cited from earlier work
# [1] = test system: T-cell proliferation mediated by TCGFs; settings: cited from earlier work
# Lyn = Lyn (Homo sapiens, UniProt P07948); settings: cited from earlier work
# Zap70 = target: T1, Zap70 (Homo sapiens, UniProt P43403); settings: cited from earlier work
# T1 sequence (P43403 1-619): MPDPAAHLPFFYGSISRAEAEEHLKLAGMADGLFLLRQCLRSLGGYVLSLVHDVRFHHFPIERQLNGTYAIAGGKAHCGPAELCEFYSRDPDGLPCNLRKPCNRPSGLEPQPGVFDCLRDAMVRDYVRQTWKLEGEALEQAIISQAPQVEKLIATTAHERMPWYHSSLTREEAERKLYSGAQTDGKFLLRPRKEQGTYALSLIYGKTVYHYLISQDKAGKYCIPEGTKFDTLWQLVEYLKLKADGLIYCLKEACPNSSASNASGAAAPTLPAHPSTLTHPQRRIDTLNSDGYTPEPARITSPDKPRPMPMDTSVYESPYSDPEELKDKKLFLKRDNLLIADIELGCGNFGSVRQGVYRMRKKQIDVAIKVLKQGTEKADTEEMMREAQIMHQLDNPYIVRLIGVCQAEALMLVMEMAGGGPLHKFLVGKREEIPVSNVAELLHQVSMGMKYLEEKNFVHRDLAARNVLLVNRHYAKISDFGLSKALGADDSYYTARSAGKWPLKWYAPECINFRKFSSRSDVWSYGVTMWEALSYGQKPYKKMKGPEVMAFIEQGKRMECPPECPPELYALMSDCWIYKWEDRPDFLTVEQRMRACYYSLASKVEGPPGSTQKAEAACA
# Src = Src (Homo sapiens, UniProt P12931); settings: cited from earlier work
# Chain of Src (P12931 whole entry, species assumed): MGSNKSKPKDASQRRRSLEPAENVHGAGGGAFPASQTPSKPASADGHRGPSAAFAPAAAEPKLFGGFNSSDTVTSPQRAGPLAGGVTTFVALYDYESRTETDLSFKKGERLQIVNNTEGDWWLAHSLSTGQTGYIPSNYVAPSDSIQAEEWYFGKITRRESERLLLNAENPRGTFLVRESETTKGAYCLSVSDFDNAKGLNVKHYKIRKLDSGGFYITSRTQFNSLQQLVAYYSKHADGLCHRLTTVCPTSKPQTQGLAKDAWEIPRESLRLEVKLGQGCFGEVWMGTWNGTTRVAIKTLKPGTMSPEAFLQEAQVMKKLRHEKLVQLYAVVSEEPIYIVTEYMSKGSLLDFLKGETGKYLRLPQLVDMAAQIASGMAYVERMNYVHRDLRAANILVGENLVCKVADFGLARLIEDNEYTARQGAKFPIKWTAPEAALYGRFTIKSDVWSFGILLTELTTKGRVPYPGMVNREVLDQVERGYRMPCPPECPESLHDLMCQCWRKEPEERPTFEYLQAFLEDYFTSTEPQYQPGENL
# [2] = test system: graft infiltrating mononuclear cells (GICs); settings: rat, in vivo; cited from earlier work
# Jak = settings: cited from earlier work
# Jak1 = Jak1 (Homo sapiens, UniProt P23458); settings: cited from earlier work
# Chain of Jak1 (P23458 whole entry, species assumed): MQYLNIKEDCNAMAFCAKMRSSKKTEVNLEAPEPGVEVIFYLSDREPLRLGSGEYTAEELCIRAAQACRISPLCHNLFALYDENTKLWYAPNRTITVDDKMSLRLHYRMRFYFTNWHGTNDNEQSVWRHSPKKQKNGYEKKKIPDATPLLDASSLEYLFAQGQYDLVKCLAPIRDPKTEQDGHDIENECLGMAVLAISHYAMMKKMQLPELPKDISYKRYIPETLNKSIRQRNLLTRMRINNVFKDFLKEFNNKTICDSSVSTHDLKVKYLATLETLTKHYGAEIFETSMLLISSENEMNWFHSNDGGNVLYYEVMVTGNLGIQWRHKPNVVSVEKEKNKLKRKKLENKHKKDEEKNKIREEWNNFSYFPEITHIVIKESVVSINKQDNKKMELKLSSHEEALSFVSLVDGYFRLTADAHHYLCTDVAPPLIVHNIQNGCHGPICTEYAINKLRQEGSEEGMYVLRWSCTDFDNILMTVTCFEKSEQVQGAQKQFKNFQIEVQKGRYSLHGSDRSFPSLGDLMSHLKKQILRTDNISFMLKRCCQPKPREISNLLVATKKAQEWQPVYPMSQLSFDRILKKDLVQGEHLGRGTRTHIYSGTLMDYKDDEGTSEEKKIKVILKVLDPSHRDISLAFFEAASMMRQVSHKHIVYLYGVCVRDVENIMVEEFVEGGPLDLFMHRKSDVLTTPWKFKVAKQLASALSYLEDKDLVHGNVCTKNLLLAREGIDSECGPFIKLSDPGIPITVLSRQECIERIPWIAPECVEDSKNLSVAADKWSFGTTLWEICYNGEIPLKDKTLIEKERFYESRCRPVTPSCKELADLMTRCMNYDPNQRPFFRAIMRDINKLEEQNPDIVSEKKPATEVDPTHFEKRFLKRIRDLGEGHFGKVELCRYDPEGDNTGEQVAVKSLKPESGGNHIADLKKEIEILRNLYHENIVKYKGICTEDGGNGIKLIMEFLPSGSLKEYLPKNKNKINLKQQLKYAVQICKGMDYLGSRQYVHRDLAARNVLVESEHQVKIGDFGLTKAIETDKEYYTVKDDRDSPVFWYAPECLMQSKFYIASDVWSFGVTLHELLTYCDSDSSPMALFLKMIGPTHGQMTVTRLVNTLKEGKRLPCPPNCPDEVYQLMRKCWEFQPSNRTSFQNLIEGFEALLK
# Btk = Btk (Homo sapiens, UniProt Q06187); settings: cited from earlier work
# Chain of Btk (Q06187 whole entry, species assumed): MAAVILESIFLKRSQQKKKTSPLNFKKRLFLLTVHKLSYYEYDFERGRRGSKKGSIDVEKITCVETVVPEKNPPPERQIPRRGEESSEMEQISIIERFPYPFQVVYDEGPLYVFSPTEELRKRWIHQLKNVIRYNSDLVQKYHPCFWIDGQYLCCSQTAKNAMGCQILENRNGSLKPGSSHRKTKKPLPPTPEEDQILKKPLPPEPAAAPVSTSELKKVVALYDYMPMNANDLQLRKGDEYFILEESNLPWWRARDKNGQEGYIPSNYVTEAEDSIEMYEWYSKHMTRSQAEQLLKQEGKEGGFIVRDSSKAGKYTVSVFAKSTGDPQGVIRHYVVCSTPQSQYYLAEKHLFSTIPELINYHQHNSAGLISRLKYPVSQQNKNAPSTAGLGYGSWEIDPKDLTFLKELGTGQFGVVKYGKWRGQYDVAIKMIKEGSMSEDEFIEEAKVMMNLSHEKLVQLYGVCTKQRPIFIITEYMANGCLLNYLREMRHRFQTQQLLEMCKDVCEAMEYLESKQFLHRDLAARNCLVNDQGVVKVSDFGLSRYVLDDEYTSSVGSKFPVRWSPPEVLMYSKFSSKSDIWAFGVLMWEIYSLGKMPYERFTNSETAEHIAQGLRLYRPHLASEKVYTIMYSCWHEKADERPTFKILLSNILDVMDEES
# Lck = Lck (Homo sapiens, UniProt P06239); settings: cited from earlier work
# Chain of Lck (P06239 whole entry, species assumed): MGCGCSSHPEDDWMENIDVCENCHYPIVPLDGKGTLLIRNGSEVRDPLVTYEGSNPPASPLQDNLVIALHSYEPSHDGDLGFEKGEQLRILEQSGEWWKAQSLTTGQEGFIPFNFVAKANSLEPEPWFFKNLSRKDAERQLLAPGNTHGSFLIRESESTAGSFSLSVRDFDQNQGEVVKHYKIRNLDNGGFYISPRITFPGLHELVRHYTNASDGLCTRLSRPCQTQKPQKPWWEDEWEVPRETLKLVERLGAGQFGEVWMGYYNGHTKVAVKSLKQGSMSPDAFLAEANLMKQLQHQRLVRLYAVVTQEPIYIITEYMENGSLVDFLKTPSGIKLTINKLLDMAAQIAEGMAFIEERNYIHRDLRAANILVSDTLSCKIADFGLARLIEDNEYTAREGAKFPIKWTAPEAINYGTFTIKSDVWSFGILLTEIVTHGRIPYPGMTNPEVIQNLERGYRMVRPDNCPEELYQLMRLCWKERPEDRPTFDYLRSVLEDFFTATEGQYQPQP
# p56Lck = p56Lck (Homo sapiens, UniProt P06239); settings: cited from earlier work
# Chain of p56Lck (P06239 whole entry, species assumed): as above
# Jak3 [3] = target: T2, Jak3 (Homo sapiens, UniProt P52333); settings: cited from earlier work
# T2 sequence (P52333 1-1124): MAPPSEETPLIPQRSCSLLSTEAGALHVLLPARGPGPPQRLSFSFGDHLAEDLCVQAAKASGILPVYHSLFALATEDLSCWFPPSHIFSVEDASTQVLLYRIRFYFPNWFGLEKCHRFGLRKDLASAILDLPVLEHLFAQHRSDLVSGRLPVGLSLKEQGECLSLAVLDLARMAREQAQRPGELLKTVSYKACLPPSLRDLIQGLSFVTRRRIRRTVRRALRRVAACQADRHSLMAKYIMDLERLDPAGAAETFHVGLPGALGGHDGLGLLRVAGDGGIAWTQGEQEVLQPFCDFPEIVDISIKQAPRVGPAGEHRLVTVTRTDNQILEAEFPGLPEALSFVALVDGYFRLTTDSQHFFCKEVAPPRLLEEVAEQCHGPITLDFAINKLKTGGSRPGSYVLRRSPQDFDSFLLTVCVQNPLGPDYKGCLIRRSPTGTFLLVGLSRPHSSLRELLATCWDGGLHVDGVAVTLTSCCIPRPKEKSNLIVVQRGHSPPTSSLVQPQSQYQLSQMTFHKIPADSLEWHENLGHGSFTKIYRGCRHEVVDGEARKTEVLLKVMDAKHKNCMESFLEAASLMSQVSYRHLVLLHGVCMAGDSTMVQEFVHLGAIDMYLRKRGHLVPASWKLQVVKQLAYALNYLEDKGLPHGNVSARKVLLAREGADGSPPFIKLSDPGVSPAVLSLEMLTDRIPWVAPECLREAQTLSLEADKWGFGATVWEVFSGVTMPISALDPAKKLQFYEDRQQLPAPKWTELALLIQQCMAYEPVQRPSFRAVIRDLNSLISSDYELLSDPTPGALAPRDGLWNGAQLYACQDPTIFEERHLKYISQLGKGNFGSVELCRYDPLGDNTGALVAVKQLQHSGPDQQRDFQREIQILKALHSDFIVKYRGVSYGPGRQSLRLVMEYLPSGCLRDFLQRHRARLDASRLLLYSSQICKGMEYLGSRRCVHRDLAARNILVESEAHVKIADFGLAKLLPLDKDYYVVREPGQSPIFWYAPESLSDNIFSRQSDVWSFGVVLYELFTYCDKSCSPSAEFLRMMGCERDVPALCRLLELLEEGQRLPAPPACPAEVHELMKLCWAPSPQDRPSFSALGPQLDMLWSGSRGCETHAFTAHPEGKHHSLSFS
# Syk = Syk (Homo sapiens, UniProt P43405); settings: cited from earlier work
# Jak3 [4] = target: T2, Jak3; settings: cited from earlier work; remark: listed apart in the source
# [5] = test system: γc/Jak3-dependent PHA-activated human T cells; assay: Proliferation of PHA-activated human T cells ([3H]-thymidine); assay type: cell-based; settings: for proliferation of PHA-activated human T cells following stimulation with IL-2 (FIG. 7A): IL-2 stimulated
# Description: Cell culture and treatment. The rat T-cell line Nb2-11c, originally developed by Dr. Peter Gout (Vancouver, Canada), was grown in RPMI-1640 with 10% fetal calf serum (Intergen, cat. no. 1020-90), 2 mM L-glutamine, 5 mM HEPES, pH 7.3, and penicillin-streptomycin (50 IU/ml and 50 μg/ml, respectively), at 37° C./5% CO2. Freshly explanted normal human T lymphocytes purified by isocentrifugation (Ficoll®; EM Science, Gibbstown, N.J.) were phytohemagglutinin (PHA)-activated for 72 hours as previously described.^23 T lymphocytes were made quiescent by washing and incubating for 24 hours in RPMI-1640 medium containing 1% fetal calf serum before exposure to cytokines. […] The Mannich base 649641P (NC1153) was generously provided by Dr. Jonathan Dimmock College of Pharmacy, University of Saskatchewan, Saskatoon, Saskatchewan, Canada. All cells were then stimulated with 1 nM recombinant human IL-2 (Hoffman-LaRoche, Basel, Switzerland), IL4 or IL7 (PeproTech), or ovine prolactin (PRL) supplied by the National Hormone and Pituitary Program, National Institute of Diabetes, Digestive, and Kidney Disease (Bethesda, Md.), at 37° C. Cell pellets were frozen at −70° C.
# Proliferation assays. Quiescent human primary T-cells, YT or rat Nb2-11c T-cells (5.0×10^4/well) were plated in flat-bottom, 96-well microtiter plates in 200 μl of quiescent media in the absence or presence of 1 nM IL-2, -4, -7 (PeproTech, Rock Hill, N.J.), or PRL. Next, cells were treated for 16 hours with the Mannich base drug and then pulsed for 4 hours with [^3H]-thymidine (0.5 μCi/200 μl) and harvested onto fiberglass filters. [^3H]-thymidine incorporation was analyzed by liquid scintillation counting as previously described,^23 or using standard techniques that are well known in the art.
# allograft = settings: in vivo; cited from earlier work
# [6] = test system: Jak3 mediated T-cell growth; settings: cited from earlier work
# [7] = rat, in vivo
# Chain of Lyn (P07948 whole entry, species assumed): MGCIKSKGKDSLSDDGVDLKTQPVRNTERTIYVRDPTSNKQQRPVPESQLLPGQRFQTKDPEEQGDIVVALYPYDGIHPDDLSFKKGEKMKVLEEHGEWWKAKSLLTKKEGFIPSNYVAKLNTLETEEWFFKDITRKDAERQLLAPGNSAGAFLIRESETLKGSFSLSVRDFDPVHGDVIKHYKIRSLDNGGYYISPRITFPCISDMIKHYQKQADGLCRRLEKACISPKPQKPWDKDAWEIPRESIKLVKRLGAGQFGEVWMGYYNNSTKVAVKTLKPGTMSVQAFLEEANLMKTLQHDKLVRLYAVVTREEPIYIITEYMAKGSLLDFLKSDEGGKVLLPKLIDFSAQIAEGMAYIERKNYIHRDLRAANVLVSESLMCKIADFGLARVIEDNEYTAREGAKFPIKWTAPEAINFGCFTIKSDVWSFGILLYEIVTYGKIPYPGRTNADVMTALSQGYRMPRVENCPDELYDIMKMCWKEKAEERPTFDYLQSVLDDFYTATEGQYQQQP
# Chain of Tyk2 (P29597 whole entry, species assumed): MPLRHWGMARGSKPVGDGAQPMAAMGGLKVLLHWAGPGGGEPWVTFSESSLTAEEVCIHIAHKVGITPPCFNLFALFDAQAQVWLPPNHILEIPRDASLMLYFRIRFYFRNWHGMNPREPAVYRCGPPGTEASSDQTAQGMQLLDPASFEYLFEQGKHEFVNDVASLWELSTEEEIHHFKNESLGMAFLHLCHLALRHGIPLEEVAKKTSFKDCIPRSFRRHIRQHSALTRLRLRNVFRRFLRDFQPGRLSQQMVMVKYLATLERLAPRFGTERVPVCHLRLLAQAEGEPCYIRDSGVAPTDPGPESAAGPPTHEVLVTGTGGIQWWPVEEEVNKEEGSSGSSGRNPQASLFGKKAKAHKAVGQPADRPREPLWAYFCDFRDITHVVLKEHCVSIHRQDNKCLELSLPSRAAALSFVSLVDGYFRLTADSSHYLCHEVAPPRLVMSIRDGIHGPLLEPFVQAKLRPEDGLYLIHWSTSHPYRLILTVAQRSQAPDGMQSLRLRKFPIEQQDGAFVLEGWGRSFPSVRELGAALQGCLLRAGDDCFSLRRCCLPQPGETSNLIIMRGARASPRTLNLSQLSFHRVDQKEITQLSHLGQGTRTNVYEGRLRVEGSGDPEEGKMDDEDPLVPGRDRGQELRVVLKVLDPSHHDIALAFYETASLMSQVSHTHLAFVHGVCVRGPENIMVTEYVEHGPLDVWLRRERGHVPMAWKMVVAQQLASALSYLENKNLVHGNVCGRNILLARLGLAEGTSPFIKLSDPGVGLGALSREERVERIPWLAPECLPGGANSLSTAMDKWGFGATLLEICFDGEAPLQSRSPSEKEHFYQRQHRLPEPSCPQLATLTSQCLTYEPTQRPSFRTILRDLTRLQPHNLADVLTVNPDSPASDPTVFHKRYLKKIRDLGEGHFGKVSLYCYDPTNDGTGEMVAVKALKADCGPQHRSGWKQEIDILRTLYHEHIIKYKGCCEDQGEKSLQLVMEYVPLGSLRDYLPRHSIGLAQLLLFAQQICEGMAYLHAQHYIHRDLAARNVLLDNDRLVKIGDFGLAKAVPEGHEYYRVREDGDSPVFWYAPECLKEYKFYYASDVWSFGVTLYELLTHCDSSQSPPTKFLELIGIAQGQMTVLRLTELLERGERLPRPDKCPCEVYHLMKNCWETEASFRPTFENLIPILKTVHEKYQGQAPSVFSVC
smiles,measurement,setting,value
N#C/C(=C\c1ccc(O)c(O)c1)C(=O)NCc1ccccc1 [AG-490],inhibition of Tyk2,Tyk2,does not inhibit
same,T-cell proliferation mediated by TCGFs,[1],competent to inhibit
same,inhibition of Lyn,Lyn,does not inhibit
same,effect on Zap70,Zap70,neither of those two agents affects
same,inhibition of Src,Src,does not inhibit
same,IL2Rα expression (ribonuclease protection assays),[2],failed to affect
same,Stat5a/b DNA binding of ex vivo IL-2 stimulated GICs,[2],reduced
same,graft infiltration of mononuclear cells (GICs),[2],reduced
same,effects on closest related family member Jak,Jak,exert similar effects
same,inhibition of Jak1,Jak1,does not inhibit
same,inhibition of Btk,Btk,does not inhibit
same,inhibition of Lck,Lck,does not inhibit
same,effect on p56Lck,p56Lck,neither of those two agents affects
same,Jak3 autokinase activity,Jak3 [3],competent to inhibit
same,inhibition of Syk,Syk,does not inhibit
CCCCCCCCCCCC1C=C/C(=C/c2[nH]c(-c3ccc[nH]3)cc2OCc2ccccc2)N1.Cl (stereo not drawn) [PNU156804],Jak3 autophosphorylation as compared with Jak2,Jak3 [4],preferentially inhibited
same,T-cell proliferation mediated by TCGFs,[1],competent to inhibit
same,IC50,"[5]; Homo sapiens, IL-2 driven T-cell growth, 16 hours drug, [3H]-thymidine, read-out: IC50, disrupting cell growth",~10 µM
same,effect on Zap70,Zap70,neither of those two agents affects
same,allograft survival,allograft,prolongs allograft survival
same,interaction with CsA,allograft,synergistically
same,interaction with RAPA,allograft,additively
same,inhibition of Jak3 mediated T-cell growth by IL-2 compared to prolactin (Jak2),[6],greater specificity
same,effect on p56Lck,p56Lck,neither of those two agents affects
same,Jak3 autokinase activity,Jak3 [3],competent to inhibit
"CO[C@H]1C[C@@H]2CC[C@@H](C)[C@@](O)(O2)C(=O)C(=O)N2CCCC[C@H]2C(=O)O[C@H]([C@H](C)C[C@@H]2CC[C@@H](O)[C@H](OC)C2)CC(=O)[C@H](C)/C=C(\C)[C@@H](O)[C@@H](OC)C(=O)[C@H](C)C[C@H](C)/C=C/C=C/C=C/1C [RAPA, rapamycin, reference compound]",peripheral blood counts (PBC),[7],"reduced PBC compared to untreated rats, in contrast to SRL"
COc1cc(C2C(C(=O)Nc3ccc(Cl)c(Cl)c3)=C(C)NC(C)=C2C(=O)Nc2ccc(Cl)c(Cl)c2)ccc1O [compound 637712],proliferation of PHA-activated human T cells following stimulation with IL-2 (FIG. 7A),[5],blocked
N#CCCN(CCC#N)c1ccc(C(Sc2ccccc2)C(NC(=O)c2cc([N+](=O)[O-])ccc2Cl)C(=O)Sc2ccccc2)cc1 (stereo not drawn) [compound 640674],proliferation of PHA-activated human T cells following stimulation with IL-2 (FIG. 7A),[5],blocked
CC1(C)c2ccccc2N2O[C@@H]3C(=O)N(c4ccccc4)C(=O)[C@@H]3C21c1ccccc1 (stereo partly drawn) [compound 643423],proliferation of PHA-activated human T cells following stimulation with IL-2 (FIG. 7A),[5],blocked
CCCCCCCC(=O)OCC(C[As](=O)(O)O)OC(=O)CCCCCCC (stereo not drawn) [compound 655906],proliferation of PHA-activated human T cells following stimulation with IL-2 (FIG. 7A),[5],blocked
CC(=O)Oc1ccc2cc(-c3ccccc3OC(C)=O)c(=O)oc2c1 [compound 673137],proliferation of PHA-activated human T cells following stimulation with IL-2 (FIG. 7A),[5],blocked
O=C1c2ccccc2C(=O)[C@@]23O[C@@]12C1(Oc2cccc4cccc(c24)O1)[C@@H]1O[C@@H]1[C@@H]3O [compound 683332],proliferation of PHA-activated human T cells following stimulation with IL-2 (FIG. 7A),[5],blocked
Cc1oc2c(c1C)S(=O)(=O)C(C#N)C(c1ccccc1)N2 (stereo not drawn) [compound 693812],proliferation of PHA-activated human T cells following stimulation with IL-2 (FIG. 7A),[5],blocked
